PubChem BioAssay (NCI)
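The compound was tested at five concentrations on cells cultured in 96-well plates, with a 48-hour exposure period. TGI is the concentration that stops growth completely.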

Key:
Assay in all cases: DTP human tumour cell line panel, 48 h
SF-539 CNS = system: SF-539 CNS
NCI-H226 lung = system: NCI-H226 lung
IGROV1 ovarian = system: IGROV1 ovarian
UACC-62 melanoma = system: UACC-62 melanoma
EKVX NSCLC = system: EKVX NSCLC
ACHN renal = system: ACHN renal
A549 NSCLC = system: A549 NSCLC
NCI-H460 lung = system: NCI-H460 lung
COLO 205 colon = system: COLO 205 colon
CCRF-CEM leukemia = system: CCRF-CEM leukemia
UACC-257 melanoma = system: UACC-257 melanoma
SNB-75 CNS = system: SNB-75 CNS
KM20L2 colon = system: KM20L2 colon
SK-OV-3 ovarian = system: SK-OV-3 ovarian
M14 melanoma = system: M14 melanoma
U251 CNS = system: U251 CNS
A498 renal = system: A498 renal
SN12C renal = system: SN12C renal
LXFL 529 NSCLC = system: LXFL 529 NSCLC
MOLT-4 leukemia = system: MOLT-4 leukemia
NCI-H23 lung = system: NCI-H23 lung
HCC-2998 colon = system: HCC-2998 colon
RPMI-8226 leukemia = system: RPMI-8226 leukemia
MALME-3M melanoma = system: MALME-3M melanoma
LOX IMVI melanoma = system: LOX IMVI melanoma
M19-MEL melanoma = system: M19-MEL melanoma
TK-10 renal = system: TK-10 renal
HCT-116 colon = system: HCT-116 colon
SNB-19 CNS = system: SNB-19 CNS
OVCAR-3 ovarian = system: OVCAR-3 ovarian
KM12 colon = system: KM12 colon
HOP-62 NSCLC = system: HOP-62 NSCLC
786-0 renal = system: 786-0 renal
HOP-18 NSCLC = system: HOP-18 NSCLC
SK-MEL-5 melanoma = system: SK-MEL-5 melanoma
K-562 leukemia = system: K-562 leukemia
UO-31 renal = system: UO-31 renal
SK-MEL-28 melanoma = system: SK-MEL-28 melanoma
NCI-H522 lung = system: NCI-H522 lung
XF 498 CNS = system: XF 498 CNS
HCT-15 colon = system: HCT-15 colon
DMS 114 small cell lung = system: DMS 114 small cell lung
RXF 393 renal = system: RXF 393 renal
SW-620 colon = system: SW-620 colon
OVCAR-5 ovarian = system: OVCAR-5 ovarian
SF-295 CNS = system: SF-295 CNS
HT29 colon = system: HT29 colon
HL-60(TB) leukemia = system: HL-60(TB) leukemia
DLD-1 colon = system: DLD-1 colon
OVCAR-8 ovarian = system: OVCAR-8 ovarian
HOP-92 NSCLC = system: HOP-92 NSCLC
SF-268 CNS = system: SF-268 CNS
CAKI-1 renal = system: CAKI-1 renal
OVCAR-4 ovarian = system: OVCAR-4 ovarian
SR leukemia = system: SR leukemia
SNB-78 CNS = system: SNB-78 CNS
RXF-631 renal = system: RXF-631 renal
DMS 273 small cell lung = system: DMS 273 small cell lung
SK-MEL-2 melanoma = system: SK-MEL-2 melanoma
MDA-MB-435 = system: MDA-MB-435
PC-3 prostate = system: PC-3 prostate
DU-145 prostate = system: DU-145 prostate
NCI/ADR-RES ovarian = system: NCI/ADR-RES ovarian
BT-549 breast = system: BT-549 breast
MCF7 breast = system: MCF7 breast
T-47D breast = system: T-47D breast
MDA-N = system: MDA-N
MDA-MB-231 breast = system: MDA-MB-231 breast
HS 578T breast = system: HS 578T breast

Cc1cc(=O)n(-c2cc3cccccc-3n2)[nH]1
TGI (SF-539 CNS): 59 µM
TGI (NCI-H226 lung): 44.4 µM
TGI (IGROV1 ovarian): 8.45 µM
TGI (UACC-62 melanoma): 7.61 µM
TGI (EKVX NSCLC): 96.7 µM
TGI (ACHN renal): 50.3 µM
TGI (A549 NSCLC): > 100 µM
TGI (NCI-H460 lung): 16.1 µM
TGI (COLO 205 colon): 43.6 µM
TGI (CCRF-CEM leukemia): > 100 µM
TGI (UACC-257 melanoma): 48.3 µM
TGI (SNB-75 CNS): 31.7 µM
TGI (KM20L2 colon): > 100 µM
TGI (SK-OV-3 ovarian): 47 µM
TGI (M14 melanoma): 19.6 µM
TGI (U251 CNS): 4.96 µM
TGI (A498 renal): 46.9 µM
TGI (SN12C renal): 62.3 µM
TGI (LXFL 529 NSCLC): 16.9 µM
TGI (MOLT-4 leukemia): > 100 µM
TGI (NCI-H23 lung): 47.4 µM
TGI (HCC-2998 colon): 48.7 µM
TGI (RPMI-8226 leukemia): 67.2 µM
TGI (MALME-3M melanoma): 9.84 µM
TGI (LOX IMVI melanoma): > 100 µM
TGI (M19-MEL melanoma): 22.3 µM
TGI (TK-10 renal): > 100 µM
TGI (HCT-116 colon): 5.27 µM
TGI (SNB-19 CNS): > 100 µM
TGI (OVCAR-3 ovarian): 8.23 µM
TGI (KM12 colon): 91.5 µM
TGI (HOP-62 NSCLC): > 100 µM
TGI (786-0 renal): 18 µM
TGI (HOP-18 NSCLC): 85.2 µM
TGI (SK-MEL-5 melanoma): 5.32 µM
TGI (K-562 leukemia): 15.5 µM
TGI (UO-31 renal): 48.3 µM
TGI (SK-MEL-28 melanoma): > 100 µM
TGI (NCI-H522 lung): 6.86 µM
TGI (XF 498 CNS): 7.46 µM
TGI (HCT-15 colon): 25.5 µM
TGI (DMS 114 small cell lung): 7.73 µM
TGI (RXF 393 renal): 11.2 µM
TGI (SW-620 colon): 13 µM
TGI (OVCAR-5 ovarian): > 100 µM
TGI (SF-295 CNS): > 100 µM
TGI (HT29 colon): 35.6 µM
TGI (HL-60(TB) leukemia): 11.6 µM
TGI (DLD-1 colon): > 100 µM

CC1C2C=C(O)C(=O)C(C2=O)C1c1ccccc1 (stereo not given)
TGI (SF-539 CNS): > 100 µM
TGI (OVCAR-8 ovarian): > 100 µM
TGI (NCI-H226 lung): > 100 µM
TGI (IGROV1 ovarian): > 100 µM
TGI (HOP-92 NSCLC): > 100 µM
TGI (UACC-62 melanoma): > 100 µM
TGI (SF-268 CNS): > 100 µM
TGI (EKVX NSCLC): > 100 µM
TGI (ACHN renal): > 100 µM
TGI (A549 NSCLC): > 100 µM
TGI (COLO 205 colon): > 100 µM
TGI (CCRF-CEM leukemia): > 100 µM
TGI (UACC-257 melanoma): > 100 µM
TGI (SNB-75 CNS): > 100 µM
TGI (KM20L2 colon): > 100 µM
TGI (SK-OV-3 ovarian): > 100 µM
TGI (CAKI-1 renal): > 100 µM
TGI (M14 melanoma): > 100 µM
TGI (U251 CNS): > 100 µM
TGI (A498 renal): > 100 µM
TGI (LXFL 529 NSCLC): > 100 µM
TGI (MOLT-4 leukemia): > 100 µM
TGI (NCI-H23 lung): > 100 µM
TGI (HCC-2998 colon): > 100 µM
TGI (RPMI-8226 leukemia): > 100 µM
TGI (MALME-3M melanoma): > 100 µM
TGI (LOX IMVI melanoma): > 100 µM
TGI (M19-MEL melanoma): > 100 µM
TGI (OVCAR-4 ovarian): > 100 µM
TGI (TK-10 renal): > 100 µM
TGI (SR leukemia): > 100 µM
TGI (SNB-78 CNS): > 100 µM
TGI (SNB-19 CNS): > 100 µM
TGI (OVCAR-3 ovarian): > 100 µM
TGI (KM12 colon): > 100 µM
TGI (RXF-631 renal): > 100 µM
TGI (HOP-62 NSCLC): > 100 µM
TGI (786-0 renal): > 100 µM
TGI (DMS 273 small cell lung): > 100 µM
TGI (SK-MEL-5 melanoma): > 100 µM
TGI (SK-MEL-2 melanoma): > 100 µM
TGI (K-562 leukemia): > 100 µM
TGI (UO-31 renal): > 100 µM
TGI (SK-MEL-28 melanoma): > 100 µM
TGI (NCI-H522 lung): > 100 µM
TGI (HCT-15 colon): > 100 µM
TGI (RXF 393 renal): > 100 µM
TGI (SW-620 colon): > 100 µM
TGI (OVCAR-5 ovarian): > 100 µM
TGI (SF-295 CNS): > 100 µM
TGI (HT29 colon): > 100 µM
TGI (DLD-1 colon): > 100 µM

CC(C)C(OC(=O)c1ccc(NCC2=CC(=O)C=CC2=O)cc1)C(C)C
TGI (SF-539 CNS): 4.1 µM
TGI (OVCAR-8 ovarian): 12.9 µM
TGI (NCI-H226 lung): 11.7 µM
TGI (IGROV1 ovarian): 5.14 µM
TGI (HOP-92 NSCLC): 4.67 µM
TGI (UACC-62 melanoma): 20.3 µM
TGI (SF-268 CNS): 31.9 µM
TGI (EKVX NSCLC): 29.1 µM
TGI (ACHN renal): 21.2 µM
TGI (A549 NSCLC): > 73.1 µM
TGI (NCI-H460 lung): 32.6 µM
TGI (COLO 205 colon): 9.84 µM
TGI (CCRF-CEM leukemia): 2.36 µM
TGI (UACC-257 melanoma): 25.9 µM
TGI (MDA-MB-435): 17.9 µM
TGI (SNB-75 CNS): 17.2 µM
TGI (SK-OV-3 ovarian): 42.1 µM
TGI (CAKI-1 renal): 3.02 µM
TGI (M14 melanoma): 19.7 µM
TGI (U251 CNS): 13.5 µM
TGI (A498 renal): 31.9 µM
TGI (SN12C renal): 35.8 µM
TGI (MOLT-4 leukemia): 7.12 µM
TGI (NCI-H23 lung): 20.2 µM
TGI (PC-3 prostate): 29.9 µM
TGI (DU-145 prostate): 65.5 µM
TGI (HCC-2998 colon): 27.9 µM
TGI (RPMI-8226 leukemia): > 28.2 µM
TGI (MALME-3M melanoma): 25.1 µM
TGI (LOX IMVI melanoma): 18 µM
TGI (OVCAR-4 ovarian): 11.4 µM
TGI (NCI/ADR-RES ovarian): 19.8 µM
TGI (TK-10 renal): 14.4 µM
TGI (SR leukemia): 11.9 µM
TGI (HCT-116 colon): 24.6 µM
TGI (BT-549 breast): 15.1 µM
TGI (SNB-19 CNS): 53.5 µM
TGI (OVCAR-3 ovarian): 23.4 µM
TGI (KM12 colon): 30.5 µM
TGI (HOP-62 NSCLC): 48.3 µM
TGI (786-0 renal): 22.8 µM
TGI (MCF7 breast): 22.5 µM
TGI (SK-MEL-5 melanoma): 24.5 µM
TGI (SK-MEL-2 melanoma): 27.3 µM
TGI (T-47D breast): 7.45 µM
TGI (K-562 leukemia): 12.6 µM
TGI (UO-31 renal): 4.74 µM
TGI (SK-MEL-28 melanoma): 15 µM
TGI (NCI-H522 lung): 2.85 µM
TGI (HCT-15 colon): 10.4 µM
TGI (MDA-N): 21.5 µM
TGI (RXF 393 renal): 3.67 µM
TGI (SW-620 colon): 27.4 µM
TGI (MDA-MB-231 breast): 31.8 µM
TGI (OVCAR-5 ovarian): 36.4 µM
TGI (SF-295 CNS): 29.4 µM
TGI (HT29 colon): 26.3 µM
TGI (HL-60(TB) leukemia): 3.96 µM
TGI (HS 578T breast): 16.7 µM
